Measurements published in patent US20240360102A1, “PYRIMIDINE-4,6-DIAMINE DERIVATIVE, A PREPARATION METHOD THEREFOR, AND A PHARMACEUTICAL APPLICATION THEREOF” (Abbisko Therapeutics Co., Ltd., priority 2021, published 2024).

Assays:
[1] = biological target: Ba/F3 EGFR-Del19-C797S (Homo sapiens, UniProt P00533, C797S, cells depend on it, form not given); assay: Cell proliferation study (CellTiter-Glo), Ba/F3 EGFR-Del19-C797S; format: cell-based; details: 72 hrs, CTG, read-out: Del19/C797S IC50
Protocol: (§1) • DMEM medium (Gibco, 11965118) • RPMI1640 medium (Gibco, 11875119) • Fetal bovine serum (FBS) (GBICO, Cat #10099-141) • CellTiter-Glo® luminescent cell viability assay kit (Promega, Cat #G7572) • Black transparent flat-bottom 96-well plate (Corning®, Cat #3603)
(§2) • SpectraMax multi-label microplate reader MD, 2104-0010A; • Carbon dioxide incubator, Thermo Scientific 3100 series; • Biological safety cabinet, Thermo Scientific, 1300 series model A2; • Inverted microscope, Olympus, CKX41SF; • Siemens refrigerator, KK25E76TI.
(§3) • (1) Cells in the logarithmic growth phase were harvested and counted using a […]. The cell viability was determined by the trypan blue dye exclusion method to ensure cell viability above 90%. • (2) The cell concentration was adjusted to reach a desired final density; 90 μL of cell suspension was added to a 96-well plate. • (3) The cells were incubated overnight in the 96-well plate at 37° C., 5% CO2 and with 95% humidity.
(§4) • (1) 10 μL of PBS was added to each well of the TO plate containing the cells, • (2) The CTG reagent was thawed and the cell plate was equilibrated to room temperature for 30 min. • (3) An equal volume of CTG solution was added to each well. • (4) The cells were lysed by shaking on an orbital shaker for 5 min. • (5) The cell plate was left to stand at room temperature for 20 min to stabilize the fluorescence signal. • (6) The fluorescence signal values of TO were read.
(§5) • (1) According to the compound information table, a corresponding volume of DMSO was added to the corresponding compound powder to prepare a 10 mM stock solution. • (2) A 1000-fold, 3.16-fold-diluted compound solution was prepared. • (3) The 1000× diluted compound solution was diluted 100-fold with PBS to prepare a 10-fold compound solution with a maximum concentration of 10 μM, including 9 concentrations, with 3.16-fold dilution, and 10 μL of the medicament solution was added to each well of the 96-well plate to seed the cells. Triplicate wells were set for each compound concentration, with a final concentration of DMSO being 0.1%. • (4) The cells were placed in the 96-well plate containing the medicament at 37° C., 5% CO2 and with 95% humidity, and cultured for 72 hrs before CTG analysis,
(§6) • (1) The CTG reagent was thawed and the cell plate was equilibrated to room temperature for 30 min. • (2) An equal volume of CTG solution was added to each well. • (3) The cells were lysed by shaking on an orbital shaker for 5 min. • (4) The cell plate was left to stand at room temperature for 20 min to stabilize the fluorescence signal. • (5) The fluorescence values were read.
(§7) Data were analyzed using GraphPad Prism 7.0 software and fitted data were regressed using non-linear S-curves to obtain dose-response curves from which IC50 values (in nM) were calculated.

[2] = tested on: A431; assay: Cell proliferation study (CellTiter-Glo), A431 WT; format: cell-based; details: Homo sapiens, A-431; A431 cells, 72 hrs, CTG
Protocol: as §1, §2, §3, §4, §5, §6, §7

[3] = biological target: Ba/F3 EGFR-L858R-C797S (Homo sapiens, UniProt P00533, C797S/L858R, cells depend on it); assay: Cell proliferation study (CellTiter-Glo), Ba/F3 EGFR-L858R-C797S; format: cell-based; details: 72 hrs, CTG, read-out: L858R/C797S IC50
Ba/F3 EGFR-L858R-C797S, sequence (P00533 whole entry C797S/L858R): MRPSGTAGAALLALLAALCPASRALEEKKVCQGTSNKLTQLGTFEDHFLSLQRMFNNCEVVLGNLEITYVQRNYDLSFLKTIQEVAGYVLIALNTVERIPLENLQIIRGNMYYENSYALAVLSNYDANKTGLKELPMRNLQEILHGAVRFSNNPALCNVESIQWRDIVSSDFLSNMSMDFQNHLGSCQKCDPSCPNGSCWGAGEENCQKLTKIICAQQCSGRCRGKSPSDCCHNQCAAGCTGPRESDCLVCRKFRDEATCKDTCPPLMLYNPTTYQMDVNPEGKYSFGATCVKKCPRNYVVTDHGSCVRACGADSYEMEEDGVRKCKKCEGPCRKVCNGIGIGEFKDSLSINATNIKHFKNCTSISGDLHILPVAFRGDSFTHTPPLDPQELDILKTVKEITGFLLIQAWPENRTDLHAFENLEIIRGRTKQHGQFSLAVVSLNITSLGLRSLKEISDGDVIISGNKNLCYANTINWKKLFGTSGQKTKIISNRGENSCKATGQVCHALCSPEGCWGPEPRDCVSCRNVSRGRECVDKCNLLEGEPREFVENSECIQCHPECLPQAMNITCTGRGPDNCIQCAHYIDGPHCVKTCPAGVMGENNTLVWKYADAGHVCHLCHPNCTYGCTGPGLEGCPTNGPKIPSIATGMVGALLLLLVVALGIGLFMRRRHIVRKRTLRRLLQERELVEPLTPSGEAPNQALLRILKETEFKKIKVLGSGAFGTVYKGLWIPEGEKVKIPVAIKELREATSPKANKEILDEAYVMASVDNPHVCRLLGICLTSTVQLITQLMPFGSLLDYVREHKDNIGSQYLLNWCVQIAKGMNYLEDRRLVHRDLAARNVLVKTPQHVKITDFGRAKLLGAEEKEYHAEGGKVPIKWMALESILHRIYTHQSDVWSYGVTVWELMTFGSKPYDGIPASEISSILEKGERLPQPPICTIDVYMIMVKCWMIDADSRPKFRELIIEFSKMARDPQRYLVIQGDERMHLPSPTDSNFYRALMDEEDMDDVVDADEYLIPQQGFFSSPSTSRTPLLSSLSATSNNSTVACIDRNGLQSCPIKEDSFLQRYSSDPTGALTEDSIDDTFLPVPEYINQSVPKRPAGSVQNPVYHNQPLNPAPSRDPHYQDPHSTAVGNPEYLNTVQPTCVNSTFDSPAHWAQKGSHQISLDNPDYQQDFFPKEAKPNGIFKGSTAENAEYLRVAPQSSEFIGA
Protocol: as §1, §2, §3, §4, §5, §6, §7

[4] = biological target: Ba/F3 EGFR-L858R (Homo sapiens, UniProt P00533, L858R, cells depend on it); assay: Cell proliferation study (CellTiter-Glo), Ba/F3 EGFR-L858R; format: cell-based; details: 72 hrs, CTG, read-out: L858R IC50
Ba/F3 EGFR-L858R, sequence (P00533 whole entry L858R): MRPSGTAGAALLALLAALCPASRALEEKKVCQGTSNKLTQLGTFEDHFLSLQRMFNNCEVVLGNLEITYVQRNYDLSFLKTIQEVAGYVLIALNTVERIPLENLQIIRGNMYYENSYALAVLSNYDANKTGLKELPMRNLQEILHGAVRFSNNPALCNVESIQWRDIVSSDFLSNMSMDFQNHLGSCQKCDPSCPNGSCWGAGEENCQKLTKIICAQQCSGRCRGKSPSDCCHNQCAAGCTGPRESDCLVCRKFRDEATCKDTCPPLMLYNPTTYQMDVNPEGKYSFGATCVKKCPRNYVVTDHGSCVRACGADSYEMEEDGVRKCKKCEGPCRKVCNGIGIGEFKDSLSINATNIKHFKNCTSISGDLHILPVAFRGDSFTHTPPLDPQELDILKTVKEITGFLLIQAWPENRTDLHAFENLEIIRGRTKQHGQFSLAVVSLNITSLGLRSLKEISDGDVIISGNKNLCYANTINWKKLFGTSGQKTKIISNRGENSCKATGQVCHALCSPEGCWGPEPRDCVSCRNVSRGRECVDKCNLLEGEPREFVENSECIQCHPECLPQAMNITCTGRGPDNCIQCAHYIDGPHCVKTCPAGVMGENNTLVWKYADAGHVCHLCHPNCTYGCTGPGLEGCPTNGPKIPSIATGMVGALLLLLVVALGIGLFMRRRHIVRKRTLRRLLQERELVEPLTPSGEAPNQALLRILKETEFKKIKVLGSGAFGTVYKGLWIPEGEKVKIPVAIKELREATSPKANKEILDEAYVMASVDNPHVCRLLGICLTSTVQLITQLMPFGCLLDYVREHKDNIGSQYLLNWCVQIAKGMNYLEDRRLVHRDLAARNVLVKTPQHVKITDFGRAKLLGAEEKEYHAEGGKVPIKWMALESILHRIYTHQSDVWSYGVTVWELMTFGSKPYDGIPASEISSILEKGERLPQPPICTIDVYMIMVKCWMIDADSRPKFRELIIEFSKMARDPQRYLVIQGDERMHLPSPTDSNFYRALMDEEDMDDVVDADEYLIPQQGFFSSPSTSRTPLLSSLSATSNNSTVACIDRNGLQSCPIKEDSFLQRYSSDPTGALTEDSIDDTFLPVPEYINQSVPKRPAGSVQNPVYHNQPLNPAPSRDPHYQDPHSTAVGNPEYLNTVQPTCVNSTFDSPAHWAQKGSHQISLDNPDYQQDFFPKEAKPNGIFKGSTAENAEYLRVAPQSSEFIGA
Protocol: as §1, §2, §3, §4
as §5, with “Triplicate wells were set for each compound concentration, with a final concentration of DMSO being 0.1%. • (4) The cells were placed in the 96-well plate containing the medicament at 37° C., 5% CO2 and with 95% humidity, and cultured for 72 hrs before CTG analysis,” left out
as §6, §7

[5] = biological target: Ba/F3 EGFR-Del19 (Homo sapiens, UniProt P00533, cells depend on it, form not given); assay: Cell proliferation study (CellTiter-Glo), Ba/F3 EGFR-Del19; format: cell-based; details: 72 hrs, CTG, read-out: Del19 IC50
Ba/F3 EGFR-Del19, sequence (P00533 with tags, fused parts or gaps DEL746-750): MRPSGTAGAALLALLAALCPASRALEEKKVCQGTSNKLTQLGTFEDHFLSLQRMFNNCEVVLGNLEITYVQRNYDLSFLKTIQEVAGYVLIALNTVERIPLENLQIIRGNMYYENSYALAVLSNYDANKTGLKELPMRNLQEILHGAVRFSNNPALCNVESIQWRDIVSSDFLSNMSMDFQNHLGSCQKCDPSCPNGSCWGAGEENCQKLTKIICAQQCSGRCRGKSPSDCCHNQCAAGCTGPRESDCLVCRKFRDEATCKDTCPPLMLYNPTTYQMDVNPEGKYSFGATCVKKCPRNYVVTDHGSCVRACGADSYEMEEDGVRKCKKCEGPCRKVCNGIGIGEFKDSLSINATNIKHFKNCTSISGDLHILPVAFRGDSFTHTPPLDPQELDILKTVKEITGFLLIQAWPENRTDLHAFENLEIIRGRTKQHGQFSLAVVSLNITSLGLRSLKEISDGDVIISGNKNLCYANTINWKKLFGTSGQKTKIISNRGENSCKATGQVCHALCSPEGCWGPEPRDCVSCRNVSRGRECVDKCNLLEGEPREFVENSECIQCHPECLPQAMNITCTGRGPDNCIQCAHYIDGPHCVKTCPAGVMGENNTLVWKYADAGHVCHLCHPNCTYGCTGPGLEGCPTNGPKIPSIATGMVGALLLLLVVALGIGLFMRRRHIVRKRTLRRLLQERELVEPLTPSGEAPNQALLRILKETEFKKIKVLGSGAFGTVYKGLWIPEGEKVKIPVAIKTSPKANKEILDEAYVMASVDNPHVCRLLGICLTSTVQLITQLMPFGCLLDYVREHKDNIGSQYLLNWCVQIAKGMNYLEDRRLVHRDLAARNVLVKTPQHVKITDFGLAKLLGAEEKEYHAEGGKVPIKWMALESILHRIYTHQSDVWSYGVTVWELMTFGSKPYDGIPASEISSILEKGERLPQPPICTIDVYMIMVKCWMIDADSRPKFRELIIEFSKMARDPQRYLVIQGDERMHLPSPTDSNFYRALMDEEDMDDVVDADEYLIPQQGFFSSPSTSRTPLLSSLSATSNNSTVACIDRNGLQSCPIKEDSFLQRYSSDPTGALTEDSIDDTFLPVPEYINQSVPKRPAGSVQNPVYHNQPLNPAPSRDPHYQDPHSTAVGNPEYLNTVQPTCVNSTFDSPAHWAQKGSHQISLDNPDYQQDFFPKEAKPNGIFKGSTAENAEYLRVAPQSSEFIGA
Protocol: as §1, §2, §3, §4
as §5, with “Triplicate wells were set for each compound concentration, with a final concentration of DMSO being 0.1%. • (4) The cells were placed in the 96-well plate containing the medicament at 37° C., 5% CO2 and with 95% humidity, and cultured for 72 hrs before CTG analysis,” left out
as §6, §7

[6] = tested on: EGFR-Mutated Advanced Non-Small-Cell Lung Cancer; details: patients, untreated EGFR-mutated advanced NSCLC; cited from earlier work

Ba/F3 EGFR-Del19-C797S, sequence (P00533 with tags, fused parts or gaps DEL746-750/C797S, form open): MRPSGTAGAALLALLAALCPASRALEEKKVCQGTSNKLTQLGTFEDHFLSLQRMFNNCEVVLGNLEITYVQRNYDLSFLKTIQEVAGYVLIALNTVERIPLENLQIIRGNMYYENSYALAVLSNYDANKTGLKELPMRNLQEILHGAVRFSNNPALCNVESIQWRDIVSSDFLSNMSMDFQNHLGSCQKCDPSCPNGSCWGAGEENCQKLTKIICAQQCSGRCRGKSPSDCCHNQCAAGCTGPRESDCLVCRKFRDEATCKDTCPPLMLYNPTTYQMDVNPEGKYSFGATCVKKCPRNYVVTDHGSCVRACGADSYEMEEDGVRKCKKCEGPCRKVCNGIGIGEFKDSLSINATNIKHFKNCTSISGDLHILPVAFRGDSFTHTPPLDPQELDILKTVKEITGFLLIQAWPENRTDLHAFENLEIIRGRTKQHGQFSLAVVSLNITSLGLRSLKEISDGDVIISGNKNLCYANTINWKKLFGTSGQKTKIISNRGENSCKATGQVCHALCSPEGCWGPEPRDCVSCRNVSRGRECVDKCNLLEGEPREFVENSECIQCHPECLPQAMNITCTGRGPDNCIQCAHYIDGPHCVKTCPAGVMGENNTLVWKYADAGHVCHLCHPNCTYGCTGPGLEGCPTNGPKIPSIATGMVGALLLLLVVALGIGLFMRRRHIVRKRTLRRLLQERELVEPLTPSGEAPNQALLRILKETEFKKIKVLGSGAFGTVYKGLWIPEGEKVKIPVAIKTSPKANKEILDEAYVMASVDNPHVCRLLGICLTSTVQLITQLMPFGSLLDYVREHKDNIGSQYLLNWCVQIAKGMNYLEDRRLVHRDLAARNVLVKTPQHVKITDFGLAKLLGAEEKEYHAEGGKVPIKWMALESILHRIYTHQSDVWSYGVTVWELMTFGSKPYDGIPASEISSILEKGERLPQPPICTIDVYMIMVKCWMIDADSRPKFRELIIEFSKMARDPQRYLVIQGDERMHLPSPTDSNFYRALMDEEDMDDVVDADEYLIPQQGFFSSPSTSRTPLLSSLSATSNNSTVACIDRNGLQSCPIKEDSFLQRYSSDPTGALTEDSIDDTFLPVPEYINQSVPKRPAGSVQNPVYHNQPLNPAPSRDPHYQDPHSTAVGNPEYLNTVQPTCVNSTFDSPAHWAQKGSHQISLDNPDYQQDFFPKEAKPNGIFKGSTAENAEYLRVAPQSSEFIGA

SMILES	GI50 [1] [nM]	IC50 [2] [nM]	GI50 [3] [nM]	GI50 [4] [nM]	GI50 [5] [nM]	overall survival [6] [months]	progression-free survival [6] [months]
Cc1cc(Nc2cc(Nc3ccnc(-c4ccccc4F)c3)ncn2)c(Cl)cc1N1CCC(N2CCN(C)CC2)CC1 [Example 18, N^4-(2-chloro-5-methyl-4-(4-(4-methylpiperazin-1-yl)piperidin-1-yl)phenyl)-N^6-(2-(2-fluorophenyl)pyridin-4-yl)pyrimidine-4-diamine]	25.1	984	21.7	–	–	–	–
COc1cc(N2CCC(N3CCN(C)CC3)CC2)c(C2CC2)cc1Nc1cc(Nc2ccnc(-c3ccccc3F)c2)ncn1 [Example 8, N^4-(5-cyclopropyl-2-methoxy-4-(4-(4-methylpiperazin-1-yl)piperidin-1-yl)phenyl)-N^6-(2-(2-fluorophenyl)pyridin-4-yl)pyrimidine-4,6-diamine]	34.6	1660	40	–	–	–	–
COc1cc(N2CCOCC2)c(-c2cnn(C)c2)cc1Nc1cc(Nc2ccnc(-c3ccccc3F)c2)ncn1 [Example 10, N^4-(2-(2-fluorophenyl)pyridin-4-yl)-N^6-(2-methoxy-5-(1-methyl-1H-pyrazol-4-yl)-4-morpholinophenyl)pyrimidine-4,6-diamine]	–	–	117	–	–	–	–
CCc1cc(Nc2cc(Nc3ccnc(-c4ccccc4F)c3)ncn2)c(OC)cc1N1CCC(N2CCN(C)CC2)CC1 [Example 6, N^4-(5-ethyl-2-methoxy-4-(4-(4-methylpiperazin-1-yl)piperidin-1-yl)phenyl)-N^6-(2-(2-fluorophenyl)pyridin-4-yl)pyrimidine-4,6-diamine]	23.7	1080	32.1	–	–	–	–
CCN1CCN(C2CCN(c3cc(OC)c(Nc4cc(Nc5ccnc(-c6ccccc6F)c5)ncn4)cc3C)CC2)CC1 [Example 16, N^4-(4-(4-(4-ethylpiperazin-1-yl)piperidin-1-yl)-2-methoxy-5-methylphenyl)-N^6-(2-(2-fluorophenyl)pyridin-4-yl)pyramidine-4,6-diamine]	12.9	177	11.3	3.9	3.1	–	–
COc1cc(N2CCC(N3CCN(C)CC3)CC2)c(C)cc1Nc1cc(Nc2ccnc(-c3ccccc3F)c2)ncn1 [Example 1, N^4-(2-(2-fluorophenyl)pyridin-4-yl)-N^6-(2-methoxy-5-methyl-4-(4-(4-methylpiperazin-1-yl)piperidin-1-yl)phenyl)pyrimidine-4,6-diamine]	3.7	182	9.1	3	3.4	–	–
COc1cc(N2CCN(C)CC2)c(-c2cnn(C)c2)cc1Nc1cc(Nc2ccnc(-c3ccccc3F)c2)ncn1 [Example 11, N^4-(2-(2-fluorophenyl)pyridin-4-yl)-N^6-(2-methoxy-5-(1-methyl-1H-pyrazol-4-yl)-4-(4-methylpiperazin-1-yl)phenyl)pyrimidine-4,6-diamine]	–	306	72.6	–	–	–	–
Cc1cc(Nc2cc(Nc3ccnc(-c4ccccc4F)c3)ncn2)c(OC(F)F)cc1N1CCC(N2CCN(C)CC2)CC1 [Example 4, N^4-(2-(difluoromethoxy)-5-methyl-4-(4-(4-methylpiperazin-1-yl)piperidin-1-yl)phenyl)-N^6-(2-(2-fluorophenyl)pyridin-4-yl)pyrimidine-4,6-diamine]	12.7	237	12.1	6.2	6.6	–	–
CCOc1cc(N2CCC(N3CCN(C)CC3)CC2)c(C)cc1Nc1cc(Nc2ccnc(-c3ccccc3F)c2)ncn1 [Example 3, N^4-(2-ethoxy-5-methyl-4-(4-(4-methylpiperazin-1-yl)piperidin-1-yl)phenyl)-N^6-(2-(2-fluorophenyl)pyridin-4-yl)pyrimidine-4,6-diamine]	–	217	23.3	–	–	–	–
COc1cc(N2CCC(N3CCN(C)CC3)CC2)c(C(C)C)cc1Nc1cc(Nc2ccnc(-c3ccccc3F)c2)ncn1 [Example 7, N^4-(2-(2-fluorophenyl)pyridin-4-yl)-N^6-(5-isopropyl-2-methoxy-4-(4-(4-methylpiperazin-1-yl)piperidin-1-yl)phenyl)pyrimidine-4,6-diamine]	–	2500	69.1	–	–	–	–
CN1CCN(C2CCN(c3cc(Cl)c(Nc4cc(Nc5ccnc(-c6ccccc6F)c5)ncn4)cc3Cl)CC2)CC1 [Example 17, N^4-(2,5-dichloro-4-(4-(4-methylpiperazin-1-yl)piperidin-1-yl)phenyl)-N^6-(2-(2-fluorophenyl)pyridin-4-yl)pyrimidine-4,6-diamine]	85	1060	87.8	–	–	–	–
COc1cc(N2CCC(N3CCN(C)CC3)CC2)c(F)cc1Nc1cc(Nc2ccnc(-c3ccccc3F)c2)ncn1 [Example 13, N^4-(5-fluoro-2-methoxy-4-(4-(4-methylpiperazin-1-yl)piperidin-1-yl)phenyl)-N^6-(2-(2-fluorophenyl)pyridin-4-yl)pyrimidine-4,6-diamine]	16.9	182	22.8	–	–	–	–
COc1cc(N2CCC(N3CCOCC3)CC2)c(C)cc1Nc1cc(Nc2ccnc(-c3ccccc3F)c2)ncn1 [Example 2, N^4-(2-(2-fluorophenyl)pyridin-4-yl)-N^6-(2-methoxy-5-methyl-4-(4-morpholinopiperidin-1-yl)phenyl)pyrimidine-4,6-diamine]	17.4	554	10.4	2.9	2.8	–	–
COc1cc(N2CCC(N3CCN(C)CC3)CC2)c(C)cc1Nc1cc(Nc2cncc(-c3ccccc3F)c2)ncn1 [Example 12, N^4-(5-(2-fluorophenyl)pyridin-3-yl)-N^6-(2-methoxy-5-methyl-4-(4-(4-methylpiperazin-1-yl)piperidin-1-yl)phenyl)pyrimidine-4,6-diamine]	–	2340	77.4	–	–	–	–
COc1cc(N2CCC(N3CCN(C)CC3)CC2)c(-c2cnn(C)c2)cc1Nc1cc(Nc2ccnc(-c3ccccc3F)c2)ncn1 [Example 9, N^4-(2-(2-fluorophenyl)pyridin-4-yl)-N^6-(2-methoxy-5-(1-methyl-1H-pyrazol-4-yl)-4-(4-(4-methylpiperazin-1-yl)piperidin-1-yl)phenyl)pyrimidine-4,6-diamine]	–	1520	68.6	–	–	–	–
Cc1cc(Nc2cc(Nc3ccnc(-c4ccccc4F)c3)ncn2)c(OCC(F)(F)F)cc1N1CCC(N2CCN(C)CC2)CC1 [Example 5, N^4-(2-(2-fluorophenyl)pyridin-4-yl)-N^6-(5-methyl-4-(4-(4-methylpiperazin-1-yl)piperidin-1-yl)-2-(2,2,2-trifluoroethoxy)phenyl)pyrimidine-4,6-diamine]	–	–	53.2	–	–	–	–
COc1cc(N2CCC(N3CCN(C)CC3)CC2)c(Br)cc1Nc1cc(Nc2ccnc(-c3ccccc3F)c2)ncn1 [Example 15, N^4-(5-bromo-2-methoxy-4-(4-(4-methylpiperazin-1-yl)piperidin-1-yl)phenyl)-N-(2-(2-fluorophenyl)pyridin-4-yl)pyrimidine-4,6-diamine]	–	181	18.3	–	–	–	–
COc1cc(N2CCC(N3CCN(C)CC3)CC2)c(Cl)cc1Nc1cc(Nc2ccnc(-c3ccccc3F)c2)ncn1 [Example 14, N^4-(5-chloro-2-methoxy-4-(4-(4-methylpiperazin-1-yl)piperidin-1-yl)phenyl)-N^6-(2-(2-fluorophenyl)pyridin-4-yl)pyrimidine-4,6-diamine]	21.9	228	21.4	–	–	–	–
C=CC(=O)Nc1cc(Nc2nccc(-c3cn(C)c4ccccc34)n2)c(OC)cc1N(C)CCN(C)C [osimertinib]	–	–	–	–	–	38.6	18.9
